The values below come from US10519504B2, “Methods for treatment of oncological disorders using epimetabolic shifters, multidimensional intracellular molecules, or environmental influencers” (Berg LLC, priority 2009, dated 2019).

Structures are written as SMILES.

The subject of data set [1] is HepG2 (liver cancer) cells. Briefly: Real-time PCR Angiogenesis Array. The data set is classed as cell-based. Conditions: 100 μM Q10, genes: ANGPTL3, ANGPTL4, CXCL1, CXCL3, CXCL5, ENG, ID3, MMP2, TIMP3. How it is done: The treatment was initiated on 1×10^5 cells per well, following the procedure utilized in the PaCa2 cells (above Examples 9-11). However, the total amount of RNA that was extracted from these samples was lower than expected. Reverse transcription is normally done using 1 μg of total RNA (determined by measurement at 260 nm). The maximum volume that can be used per reverse transcription is 8 μl.
In general terms: Real-time PCR tracks product formation cycle by cycle.

Data set [2] relates to PC-3. Briefly: Nexin assay for apoptosis (Annexin-V-PE/7-AAD, flow cytometry). The format is cell-based. Conditions: 50 μM and 100 μM Q10, 24 hours, less than in PaCa2. The source says:
(§1) The 7AAD dye will enter into cells with permeabilized cell membranes; primarily those cells that are in late apoptosis. Annexin-V-PE is a dye that binds to Phosphotidyl serine, which is exposed on the outer surface of the plasma membrane in early apoptotic cells. The Nexin reagent thus can be used to differentiate between different populations of apoptotic cells in a flow cytometer.
(In general: A flow cytometer gives signals particle by particle.)

Data set [3] deals with SK-MEL28. Described as above. The data set is classed as cell-based. Conditions: 50 μM and 100 μM Q10, 24 hours.
Text: as §1

The test system of data set [4] is MCF-7. The data set is described as above. The format is cell-based. Conditions: 50 μM and 100 μM Q10, 24 hours.
Text: as §1

The conditions of data set [5]: rats; Bhagavan et al.; cited from earlier work.
Data set [6] relates to HASMC cells. Briefly: Diabetes PCR array. The format is cell-based, human. As for the experimental part:
(§2) The HK-2 and HASMC cells are normally maintained in culture at 5.5 mM glucose, which is a concentration that corresponds to a range considered normal in human blood. However, in order to simulate a diabetic environment, both cell lines were subsequently maintained at 22 mM glucose, which corresponds to the range observed in human blood associated with chronic hyperglycemia. The cells were subsequently allowed to propagate over 3 passages so that the intracellular regulation processes were functionally adapted to mimic a diabetic state. The choice of cell line was based on the physiologic influence of diabetes on renal dysfunction and progression to end-stage renal disease (ESRD) in addition to the progressive pathophysiology of a compromised cardiovascular function.
(§3) The Diabetes PCR array (SABiosciences) offers a screen for 84 genes simultaneously.
A stringent analysis of the Real time PCR data of the HASMC cell samples on the Diabetes Arrays (Cat #PAHS-023E, SABiosciences Frederick Md.) was made to exclude all results where gene regulation was not at least a two-fold regulation over HASMC normal untreated cells with a p value of less than 0.05.

The test system of data set [7] is Pancreatic Cancer Cells (PaCa2). Nature of the data set: Real-time PCR Diabetes Array. The format is cell-based. As to conditions: 100 uM Q10. How it is done: (§4) Experiments were carried out essentially as described above.
The subject of data set [8] is various cell types. Briefly: Induction of early apoptosis in oncogenic and normal cell types (Bcl-2, caspase, annexin V). The data set is classed as cell-based. How it is done: CoQ10 treatment of cells was carried out as described in detail below in the Materials and Methods. Induction of apoptosis was assessed in the treated cells by monitoring indicators of early apoptosis (e.g., Bcl-2 expression, caspase activation and by using annexin V assays) as described below. From these studies, the minimal CoQ10 dosage, e.g., concentration of CoQ10 and time of treatment, required to induce apoptosis in the panel of cell lines was determined.
Cells were cultured in T-75 flasks with relevant medium supplemented with 10% Fetal Bovine Serum (FBS), 1% PSA (penicillin, streptomycin, amphotericin B) (Invitrogen and Cellgro) in a 37° C. incubator with 5% CO2 levels until 70-80% confluence was reached. To harvest cells for treatment, flasks were primed with 1 mL Trypsin, aspirated, trypsinized with an additional 3 mL, and incubated at 37° C. for 3-5 minutes. Cells were then neutralized with an equal volume of media and the subsequent solution was centrifuged at […] for 8 minutes. The supernatant was aspirated and the cells were resuspended with 8.5 ml of media. A mixture of 500 ul of the resuspension and 9.5 ml of […] was read twice by a coulter counter and the appropriate number of cells to be seeded into each dish was determined. Control and concentration ranging from 0-200 μM groups were examined in triplicate. From a 500 μM CoQ-10 stock solution, serial dilutions were performed to achieve desired experimental concentration in appropriate dishes. Dishes were incubated in a 37° C. incubator with 5% CO2 levels for 0-72 hours depending on cell type and experimental protocol.
The volume of sample to load per well was determined using the raw mean concentration of protein obtained from the BCA protein assay. Approximately 30-60 μg of protein were loaded for each treatment time point. Proteins were run in triplicate on 12% Tris-HCl ready gels (Bio-Rad) or hand cast gels in 1× running buffer at 85 and 100 volts. Proteins were then transferred onto nitrocellulose paper for an hour at 100 volts, and blocked for another hour in a 5% milk solution. Membranes were placed in primary antibody (1 uL Ab:1000 uL TBST) (Cell Signaling) overnight at […] The following day, membranes were washed three times for ten minutes each with Tris-Buffered Saline Tween-20 (TBST), and secondary antibody (anti-rabbit; 1 uL Ab: 1000 uL TBST) was applied for an hour at […] Membranes were washed again three times for ten minutes with TBST and chemoluminescence using Pico or Femto substrate was completed (Pierce). Membranes were then developed at time intervals that produced the best visual results. After developing, membranes were kept in TBST at […] until Actin levels could be measured.
Cells were washed twice in PBS10× and resuspended in Binding Buffer (0.1 M HEPES, pH 7.4; 1.4 M NaCl; 25 mM CaCl2). Samples of 100 μl were added to a culture tube with 5 μl of annexin-PE dye or […]. The cells were mixed and incubated without light at room temperature for 15 minutes. After which, 400 μl of 1× Binding Buffer was added to each sample and they were subjected to analysis by flow cytometry.

For data set [9], the system named is Pancreatic Cancer Cells (PaCa2). Briefly: Real-time PCR Angiogenesis Array. The format is cell-based. How it is done: as §4
For data set [10], the system named is HK-2 cells. Nature of the data set: Diabetes PCR array. As to conditions: HK2(H) cells, 22 mM glucose; particularly 100 μM. The data set is classed as cell-based, human. As for the experimental part:
as §2, §3
A stringent analysis of the Real time PCR data of the HK-2 samples on the Diabetes Arrays (Cat #PAHS-023E, SABiosciences Frederick Md.) was made to exclude all results where gene regulation was not at least a two-fold regulation over HK-2 normal untreated cells with a p value of less than 0.05.

On to `COC1=C(OC)C(=O)C(C/C=C(\C)CC/C=C(\C)CC/C=C(\C)CC/C=C(\C)CC/C=C(\C)CC/C=C(\C)CC/C=C(\C)CC/C=C(\C)CC/C=C(\C)CCC=C(C)C)=C(C)C1=O` [Q10, Coenzyme Q10], for which, in data set [1], the “genes regulated in the Angiogenesis Arrays” value is “List of genes regulated in the Angiogenesis Arrays”. Moreover, the “early and late apoptotic population” value in data set [2] was “increase in both early and late apoptotic population”. Also, the apoptotic population result in data set [3] and in [4] was “increase only in early apoptotic population” in each case. Besides, the “orally-administered CoQ10 absorbed” value in data set [5] was 2-3%. For the same molecule, the “expression of CCL5” value in [6] (HASMC cells) is given as “significant decrease in the expression of CCL5”. Moreover, in data set [6] (hyperglycemic HASMC cells), the “expression of AGT, CEACAM1, INSR, SELL, IL-6, TNF, CCL5” value is recorded as “altered expression of genes”. In addition, the “diabetes array genes (ABCC8, ACLY, ADRB3 ... IL4R, IL6 as listed)” value in data set [7] is listed as “modulated by Q10 treatment”. Besides, the “Indication of Early apoptosis (Bcl-2, annexin V, or caspase activation)” value in data set [8] (BONE: Ewing's sarcoma (NCI), wrapped cell reads Extremely strong) is “Extremely”; in [8] (BREAST: Mammary fiboblasts: 184A1 and 184B5) (Lawrence Berkeley)) it was “None”; in data set [8] (SKIN: Melanoma (Skmel 2)) it was “Very Strong”; in [8] (SKIN: Melanoma (Skmel 28)), “Strong”; in data set [8] (SKIN: SCC, Squamous cell carcinoma), “Very Strong”. For the same molecule, the “dose dependent response of cancer vs control cell lines” value in data set [8] (keratinocytes, melanocytes vs SK-MEL-28, SK-MEL-2, SCC, PaCa2, HEP-G2, various levels) was “induction of apoptosis and cell death in the cancer cells only”. The “efficacy of treatment by cell type” value in data set [8] (oncogenic cell lines of differing aggressiveness) is listed as “greater in cell types that exhibited increased oncogenicity and/or greater metastatic potential”. Besides, in data set [9] (100 uM Q10), the “angiogenesis array genes (AKT1, ANGPTL4 ... VEGFA, VEGFB as listed)” value is given as “modulated by Q10 treatment”. Also, the “genes from the angiogenesis array whose expression is regulated” value in data set [9] (100 μM Q10, genes: ANGPTL4, CDH5, FGF1, AKT1, ANPEP, CCL2, CXCL1, EDG1, EFNB2, EGF, ILIB, IL8, KDR, NRP1, PECAM1, PROK2, SPHK1, STAB1, VEGFA) is “A list of genes from the angiogenesis array whose expression is regulated”. In addition, the “CEACAM1 RNA transcript” value in [10] is on record as “highly upregulated”.
